Our source for the IC50 values is ChEMBL document CHEMBL1131688, “Solution-phase and solid-phase synthesis of novel transition state inhibitors of coagulation enzymes incorporating a piperidinyl moiety” (Bioorg Med Chem Lett, 1999).

The term IC50 denotes the concentration at which inhibition is half-maximal. Low values mean higher potency, high ones lower potency.

Assay [1] has as its target Prothrombin (Homo sapiens, UniProt P00734). Description: Inhibitory activity against thrombin with respect to Argatroban.
Assay [2] concerns the target T1, Coagulation factor X (Homo sapiens, UniProt P00742). Description: Inhibitory activity against Coagulation factor X with respect to Argatroban.
The target of assay [3] is T1, Coagulation factor X. Description: Inhibitory activity against Coagulation factor X.

SMILES strings stand for the structures.

T1 sequence (P00742 41-179 limits assumed): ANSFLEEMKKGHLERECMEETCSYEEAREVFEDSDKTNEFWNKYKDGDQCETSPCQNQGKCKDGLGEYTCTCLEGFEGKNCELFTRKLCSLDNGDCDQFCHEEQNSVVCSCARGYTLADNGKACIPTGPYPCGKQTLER
T1 sequence (P00742 235-488 limits assumed): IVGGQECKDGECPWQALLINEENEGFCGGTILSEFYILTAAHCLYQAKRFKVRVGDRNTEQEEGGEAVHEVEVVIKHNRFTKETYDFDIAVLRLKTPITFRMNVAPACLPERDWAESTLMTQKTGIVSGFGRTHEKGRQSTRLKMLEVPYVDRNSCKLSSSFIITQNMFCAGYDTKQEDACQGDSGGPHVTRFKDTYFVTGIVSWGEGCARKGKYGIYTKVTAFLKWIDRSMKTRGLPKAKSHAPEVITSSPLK

As for `CCS(=O)(=O)N[C@H](CC1CCCCC1)C(=O)N1CCC[C@H]1C(=O)NC(CC1CCNCC1)C(=O)C(=O)O` (stereo partly specified), the IC50 in assay [1] is 220 nM; in assay [2] it was 16000 nM. For the molecule `O=C(NCc1ccccc1)C(=O)[C@H](CC1CCNCC1)NC(=O)[C@H]1CCCN1C(=O)[C@@H]1NCC[C@H]2CCCC[C@H]21`, the IC50 turned out to be 48 nM in assay [1] and 2900 nM in assay [2]. As for `CC1CNc2c(cccc2S(=O)(=O)N[C@@H](CCCNC(=N)N)C(=O)N2CCC(C)C[C@@H]2C(=O)O)C1` (single isomer, unassigned) [ARGATROBAN], the IC50 in assay [3] came out at 134000 nM. As for `CCS(=O)(=O)N[C@H](CC1CCCCC1)C(=O)N1CCC[C@H]1C(=O)N[C@@H](CC1CCNCC1)C(=O)c1nccs1`, the values for the IC50 in assay [1] and in assay [2] were 120 nM and 2500 nM, respectively. In the case of `O=C(NCc1ccccc1)C(=O)[C@H](CC1CCNCC1)NC(=O)[C@H]1CCCN1C(=O)CC(c1ccccc1)c1ccccc1`, the IC50 came to 260 nM in assay [1] and 54000 nM in assay [2].

With `O=C(CN1CCCCC(NS(=O)(=O)Cc2ccccc2)C1=O)N[C@@H](CC1CCNCC1)C(=O)C(=O)NCc1ccccc1` (stereo partly specified), the results for the IC50 in assay [1] and in assay [2] were 1400 nM and 5200 nM, respectively.

In the case of `CCS(=O)(=O)N[C@H](CC1CCCCC1)C(=O)N1CCC[C@H]1C(=O)NC(CC1CCNCC1)C(=O)c1nccs1` (stereo partly specified), the 50% inhibitory concentration (IC50) amounted to 160 nM in assay [1] and 4100 nM in assay [2]. For `O=C(O)CN[C@H](CC1CCCCC1)C(=O)N[C@@H](Cc1ccccc1)C(=O)NC(CC1CCNCC1)C(=O)c1nccs1` (stereo partly specified) the same measures were 3100 nM and 7800 nM.

With `O=C(Cn1cccc(NS(=O)(=O)Cc2ccccc2)c1=O)N[C@@H](CC1CCNCC1)C(=O)C(=O)NCc1ccccc1`, the IC50 in assay [1] was found to be 590 nM; in assay [2], 3600 nM. Consider `CN(CC(=O)NC(CC1CCNCC1)C(=O)c1nccs1)C(=O)[C@@H](CC1CCCCC1)NCC(=O)O` (stereo partly specified), for which the IC50 in assay [1] turned out to be 4800 nM; in assay [2], 430 nM. For `O=C(O)CN[C@H](CC1CCCCC1)C(=O)NCC(=O)NC(CC1CCNCC1)C(=O)c1nccs1` (stereo partly specified) the same measures were 19400 nM and 1100 nM.
